Measurements: patent US7329653B2, “Cyclohexylphenyl vasopressin agonists” (Wyeth, priority 2001, dated 2008)

What was measured:
vasopressin V2 receptors = biological target: T1, vasopressin V2 receptors (Rattus norvegicus, UniProt Q00788); test: Vasopressin V2 agonist effects in normal conscious water-loaded rats; assay type: in vivo; settings: vs control; oral dose of 10 mg/Kg; urine collected for four hours; Sprague-Dawley (CD) rats
T1 construct: Male or female normotensive Sprague-Dawley rats; tissue Charles River Laboratories, Inc; host or cells: whole animal (Sprague-Dawley rat; kidney collecting ducts per the background)
T1 sequence (Q00788 whole entry): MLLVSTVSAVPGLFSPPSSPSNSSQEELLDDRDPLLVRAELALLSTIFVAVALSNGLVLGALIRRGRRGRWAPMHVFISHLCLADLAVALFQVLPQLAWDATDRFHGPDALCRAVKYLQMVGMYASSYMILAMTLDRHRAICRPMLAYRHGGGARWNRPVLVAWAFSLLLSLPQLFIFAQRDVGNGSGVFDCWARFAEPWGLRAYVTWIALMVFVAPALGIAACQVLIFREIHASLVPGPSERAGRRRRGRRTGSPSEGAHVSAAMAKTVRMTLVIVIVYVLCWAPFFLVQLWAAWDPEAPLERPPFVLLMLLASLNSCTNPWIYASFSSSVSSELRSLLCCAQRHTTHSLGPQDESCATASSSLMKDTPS
Source text: Vasopressin V2 Agonist Effects of Test Compounds in Normal Conscious Water-Loaded Rats
Male or female normotensive Sprague-Dawley rats (Charles River Laboratories, Inc., Kingston, N.Y.) of 350-500 g body weight were supplied with standard rodent diet (Purina Rodent Lab. Chow 5001) and water ad libitum. On the day of test, rats were placed individually into metabolic cages equipped with devices to separate the feces from the urine and containers for collection of urine. A test compound or a reference agent was given at an oral dose of 10 mg/Kg in a volume of 10 mL/Kg. The vehicle used was 2.5% preboiled corn starch in 20% dimethylsulfoxide (DMSO). Thirty minutes after dosing the test compound, rats were gavaged with water at 30 mL/Kg into the stomach using a feeding needle. During the test, rats were not provided with water or food. Urine was collected for four hours after dosing of the test compound. At the end of four hours, urine volume was measured. Urinary osmolality was determined using a Fiske One-Ten Osmometer (Fiske Associates, Norwood, Mass., 02062) or an Advanced CRYOMATIC Osmometer, Model 3C2 (Advanced Instruments, Norwood, Mass.). Determinations of Na^+, K^+ and Cl^− ion were carried out using ion specific electrodes in a Beckman SYNCHRON EL-ISE Electrolyte System analyzer. The urinary osmolality should increase proportionally. In the screening test, two rats were used for each compound. If the difference in the urine volume of the two rats was greater than 50%, a third rat was used.

Compound | melting point [°C] | Urinary Osmolality (% increase) (vasopressin V2 receptors) | Urine Volume (% decrease) (vasopressin V2 receptors)
O=C(c1ccc(C2CCCCC2)cc1)N1Cc2cccn2Cc2ccccc21 [Example 1, 10-(4-Cyclohexyl-benzoyl)-10,11-dihydro-5H-pyrrolo[2,1-c][1,4]benzodiazepine] | 127 to 129 | 232 | 61
O=C(c1ccc(C2CCCCC2)cc1)N1Cc2cccnc2Nc2ccccc21 [Example 2, (4-Cyclohexyl-phenyl)-(5,11-dihydro-pyrido[2,3-b][1,5]benzodiazepin-6-yl)-methanone] | 230 to 233 | 51 | 48
CN1c2ccccc2N(C(=O)c2ccc(C3CCCCC3)cc2)Cc2cccnc21 [Example 3, (4-Cyclohexyl-phenyl)-(5,11-dihydro-11-methyl-5H-pyrido[2,3-b][1,5]benzodiazepin-6-yl)-methanone] |  | 129 | 51
CCN1c2ccccc2N(C(=O)c2ccc(C3CCCCC3)cc2)Cc2cccnc21 [Example 4, (4-Cyclohexyl-phenyl)-(5,11-dihydro-11-ethyl-5H-pyrido[2,3-b][1,5]benzodiazepin-6-yl)-methanone] |  | 132 | 64
O=C(c1ccc(C2CCCCC2)cc1)N1Cc2ccccc2Nc2ccccc21 [Example 5, (4-Cyclohexyl-phenyl)-(5,11-dihydro-10H-dibenzo[b,e][1,4]diazepin-10-yl)methanone] | 175 to 176 |  | 
CN1c2ccccc2CN(C(=O)c2ccc(C3CCCCC3)cc2)c2ccccc21 [Example 6, (4-Cyclohexyl-phenyl)-(5,11-dihydro-5-methyl-10H-dibenzo[b,e][1,4]diazepin-10-yl)-methanone] | 111 to 112 |  | 
O=C(c1ccc(C2CCCCC2)cc1)N1Cc2cccn2Cc2ncccc21 [Example 7, (4-Cyclohexyl-phenyl)-(4H,10H-3a,5,9-triaza-benzo[f]azulen-9-yl)-methanone] | 150 to 152 |  | 
O=C(c1ccc(C2CCCCC2)cc1)N1CCCCc2sccc21 [Example 8, (4-Cyclohexyl-phenyl)-(5,6,7,8-tetrahydro-thieno[3,2-b]azepin-4-yl)-methanone] | 145 to 148 |  | 
